Values of other authors in patent publication US20210128727A1, “A pharmaceutical combination for use in the treatment of cancer” (Universitätsmedizin der Johannes Gutenberg-Universität Mainz, priority 2018, published 2021).

Molecular target: T1, TLR-9 (Mus musculus, UniProt Q9EQU3)
T1 construct: host or cells: mice (in vivo, endogenous protein)
T1 sequence (Q9EQU3 26-1032): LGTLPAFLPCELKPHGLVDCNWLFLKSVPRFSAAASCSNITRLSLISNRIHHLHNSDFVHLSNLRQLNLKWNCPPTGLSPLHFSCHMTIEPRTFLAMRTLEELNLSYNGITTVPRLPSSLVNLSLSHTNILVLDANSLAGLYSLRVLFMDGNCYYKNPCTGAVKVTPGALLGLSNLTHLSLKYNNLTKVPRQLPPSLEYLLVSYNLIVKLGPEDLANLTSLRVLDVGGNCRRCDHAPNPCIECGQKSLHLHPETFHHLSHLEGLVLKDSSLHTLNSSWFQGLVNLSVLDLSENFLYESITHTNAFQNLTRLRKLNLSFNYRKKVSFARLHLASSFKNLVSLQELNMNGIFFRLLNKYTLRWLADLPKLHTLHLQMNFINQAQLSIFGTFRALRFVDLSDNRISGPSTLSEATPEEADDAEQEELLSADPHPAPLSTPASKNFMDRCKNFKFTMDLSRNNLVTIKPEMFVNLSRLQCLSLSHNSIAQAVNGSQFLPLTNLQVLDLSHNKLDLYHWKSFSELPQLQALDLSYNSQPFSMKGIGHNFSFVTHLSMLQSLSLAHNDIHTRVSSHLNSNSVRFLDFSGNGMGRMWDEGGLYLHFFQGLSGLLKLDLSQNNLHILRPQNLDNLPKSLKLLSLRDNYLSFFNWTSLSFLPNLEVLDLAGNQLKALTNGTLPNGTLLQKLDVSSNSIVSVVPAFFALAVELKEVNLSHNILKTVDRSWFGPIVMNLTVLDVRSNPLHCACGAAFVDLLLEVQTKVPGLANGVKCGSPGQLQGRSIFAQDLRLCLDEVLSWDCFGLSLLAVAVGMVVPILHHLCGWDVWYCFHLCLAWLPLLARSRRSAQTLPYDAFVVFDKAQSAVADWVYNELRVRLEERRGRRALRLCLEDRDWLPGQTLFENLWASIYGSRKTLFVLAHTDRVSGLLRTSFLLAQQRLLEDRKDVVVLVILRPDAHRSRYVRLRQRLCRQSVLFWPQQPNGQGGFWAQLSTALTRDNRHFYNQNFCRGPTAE
Details: mice

5′-TCCATGACGTTCCTGATGCT-3′: CpG oligodeoxynucleotide TLR9 agonist produced at Metabion International AG (DNA, all phosphorothioate, methylation of C not given here; listed as Mus musculus)
reversal of regulatory T cell-mediated CD8 tolerance: efficiently reverse regulatory T cell-mediated CD8 tolerance
